Test results as given in patent US8461348B2, “Heterocyclic derivative and use thereof” (Takeda Pharmaceutical Company Limited, priority 2008, dated 2013).

Each molecule was assayed against T1, Purified sGC (Homo sapiens, UniProt Q02153) (assay: Measurement of sGC activation in vitro (cGMP production by purified sGC)). Conditions: 20 min; test compound diluted to 30 μM, 10 μL/well plus equal volumes of sGC and GTP; 20 min at room temperature; cGMP without compound (1% DMSO) = 100%; read-out: cGMP amount (%) in experiment system.
T1 sequence (Q02153 1-619): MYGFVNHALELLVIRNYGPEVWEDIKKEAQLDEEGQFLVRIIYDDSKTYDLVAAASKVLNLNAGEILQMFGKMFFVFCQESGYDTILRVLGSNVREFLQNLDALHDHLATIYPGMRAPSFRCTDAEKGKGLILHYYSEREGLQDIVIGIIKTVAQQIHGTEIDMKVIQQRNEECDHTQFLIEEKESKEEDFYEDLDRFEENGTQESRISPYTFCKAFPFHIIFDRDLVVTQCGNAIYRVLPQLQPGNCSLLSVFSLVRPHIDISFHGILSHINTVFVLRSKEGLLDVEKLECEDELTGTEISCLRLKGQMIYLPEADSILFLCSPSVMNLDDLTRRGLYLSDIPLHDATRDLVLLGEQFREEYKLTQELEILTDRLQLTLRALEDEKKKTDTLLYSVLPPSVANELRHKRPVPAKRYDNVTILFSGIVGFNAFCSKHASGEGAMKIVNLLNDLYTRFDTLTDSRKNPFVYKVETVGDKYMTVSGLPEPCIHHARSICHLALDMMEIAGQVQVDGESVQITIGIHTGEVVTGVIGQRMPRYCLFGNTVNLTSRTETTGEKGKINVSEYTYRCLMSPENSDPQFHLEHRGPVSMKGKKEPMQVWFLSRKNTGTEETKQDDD
T1 sequence (Q02108 1-690 partner): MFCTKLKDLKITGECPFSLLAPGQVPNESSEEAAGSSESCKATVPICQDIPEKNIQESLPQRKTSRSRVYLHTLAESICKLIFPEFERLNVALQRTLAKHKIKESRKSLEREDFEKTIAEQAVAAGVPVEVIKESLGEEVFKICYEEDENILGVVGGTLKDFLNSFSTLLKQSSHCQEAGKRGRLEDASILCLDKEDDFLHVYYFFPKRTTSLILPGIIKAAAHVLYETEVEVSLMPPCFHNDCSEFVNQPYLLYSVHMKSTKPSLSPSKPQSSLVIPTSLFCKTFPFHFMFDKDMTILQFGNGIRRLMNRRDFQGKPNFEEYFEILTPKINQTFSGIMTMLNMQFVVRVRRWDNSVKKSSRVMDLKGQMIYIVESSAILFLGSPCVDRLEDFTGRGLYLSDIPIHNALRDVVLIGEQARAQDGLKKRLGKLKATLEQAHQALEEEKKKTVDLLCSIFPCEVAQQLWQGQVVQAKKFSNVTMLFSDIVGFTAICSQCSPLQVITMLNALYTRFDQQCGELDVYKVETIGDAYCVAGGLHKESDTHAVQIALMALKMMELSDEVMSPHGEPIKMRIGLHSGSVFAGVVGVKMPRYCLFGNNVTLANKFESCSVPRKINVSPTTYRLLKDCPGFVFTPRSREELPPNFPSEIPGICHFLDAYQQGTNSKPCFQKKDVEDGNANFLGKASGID
Assay type: biochemical
Protocol: To evaluate sGC activation of each compound, the following in vitro tests were performed.
A test compound was diluted with a reaction buffer (50 mM HEPES, 5 mM MgCl2, 2 mM DTT, 0.5 mM IBMX (isobutylmethylxanthine), 0.01% BSA) to 30 μM (3% DMSO), and dispensed to a 384 well plate (manufactured by REMP) at 10 μL/well. Purified sGC was diluted with the reaction buffer to 240 ng/mL and added to the plate at 10 μL/well. Then, 120 μM GTP prepared with the reaction buffer was added to the reaction plate at 10 μL/well to initiate an enzyme reaction. After stirring at room temperature for 20 min to allow reaction, 125 mM Na2CO3 was added at 15 μL/well to quench the reaction. Thereafter, 125 mM Zn Acetate (zinc acetate) was added at 15 μL/well to allow precipitation of unreacted GTP. Then, the amount of the resulting cGMP contained in the supernatant was quantified using a CatchPoint cGMP assay kit (molecular devices). The method followed the protocol attached to the assay kit. For detection, Super Signal ELISA Femto (Thermo) was used, and the amount of luminescence was measured with ARVO (Perkinelmer). The sGC activity with addition of the compound was calculated using the amount of cGMP produced without addition of the compound (in the presence of 1% DMSO) as 100%.

Row | activity at 10 µM | Structure (SMILES)
1 | > 1000% | O=C(O)c1cnn(Cc2nc(-c3cccc(C(F)(F)F)c3)cs2)c1 [Example 1, 1-({4-[3-(trifluoromethyl)phenyl]-1,3-thiazol-2-yl}methyl)-1H-pyrazole-4-carboxylic acid]
2 | > 1000% | Cc1c(C(=O)O)cnn1Cc1nc(-c2cccc(C(F)(F)F)c2)cs1 [Example 13, 5-methyl-1-({4-[3-(trifluoromethyl)phenyl]-1,3-thiazol-2-yl}methyl)-1H-pyrazole-4-carboxylic acid]
3 | 503% | FC(F)(F)c1cccc(-c2csc(Cn3cc(-c4nn[nH]n4)cn3)n2)c1 [Example 18, 5-[1-({4-[3-(trifluoromethyl)phenyl]-1,3-thiazol-2-yl}methyl)-1H-pyrazol-4-yl]-2H-tetrazole]
4 | > 1000% | O=C(O)c1cnn(Cc2csc(-c3cccc(C(F)(F)F)c3)n2)c1 [Example 21, 1-({2-[3-(trifluoromethyl)phenyl]-1,3-thiazol-4-yl}methyl)-1H-pyrazole-4-carboxylic acid]
5 | 996% | O=C(O)c1cnn(Cc2ncc(-c3cccc(C(F)(F)F)c3)s2)c1 [Example 23, 1-({5-[3-(trifluoromethyl)phenyl]-1,3-thiazol-2-yl}methyl)-1H-pyrazole-4-carboxylic acid]
6 | > 1000% | O=C(O)c1cnn(Cc2nc(-c3cccc(C(F)(F)F)c3F)cs2)c1 [Example 52, 1-({4-[2-fluoro-3-(trifluoromethyl)phenyl]-1,3-thiazol-2-yl}methyl)-1H-pyrazole-4-carboxylic acid]
7 | > 1000% | Cc1sc(-c2cccc(C(F)(F)F)c2F)nc1Cn1cc(C(=O)O)cn1 [Example 80, 1-({2-[2-fluoro-3-(trifluoromethyl)phenyl]-5-methyl-1,3-thiazol-4-yl}methyl)-1H-pyrazole-4-carboxylic acid]
8 | > 1000% | Cc1sc(-c2cc(Cl)cc(C(F)(F)F)c2)nc1Cn1cc(C(=O)O)cn1 [Example 83, 1-({2-[3-chloro-5-(trifluoromethyl)phenyl]-5-methyl-1,3-thiazol-4-yl}methyl)-1H-pyrazole-4-carboxylic acid]
9 | > 1000% | O=C(O)c1cnn(-c2nc(Cc3cccc(C(F)(F)F)c3)cs2)c1C(F)(F)F [Ref. Ex. 25, 5-(trifluoromethyl)-1-{4-[3-(trifluoromethyl)benzyl]-1,3-thiazol-2-yl}-1H-pyrazole-4-carboxylic acid]

Further lines, the molecule ahead of its results:

Row | Structure (SMILES) | activity at 10 µM
10 | Cc1cc(C(=O)O)nn1Cc1nc(-c2ccc(Cl)c(Cl)c2)cs1 [Example 6, 1-{[4-(3,4-dichlorophenyl)-1,3-thiazol-2-yl]methyl}-5-methyl-1H-pyrazole-3-carboxylic acid] | 420%
11 | O=C(O)c1ccc(Cc2nc(-c3ccc(Cl)c(Cl)c3)cs2)cc1 [Example 179, 4-{[4-(3,4-dichlorophenyl)-1,3-thiazol-2-yl]methyl}benzoic acid] | > 1000%
12 | O=C(O)c1ccc(Cc2nc(-c3cccc(C(F)(F)F)c3F)cs2)cc1 [Example 186, 4-({4-[2-fluoro-3-(trifluoromethyl)phenyl]-1,3-thiazol-2-yl}methyl)benzoic acid] | > 1000%
13 | O=C(O)c1cnn(-c2nc(-c3ccc(Cl)c(Cl)c3)cs2)c1C(F)(F)F [Ref. Ex. 1, 1-[4-(3,4-dichlorophenyl)-1,3-thiazol-2-yl]-5-(trifluoromethyl)-1H-pyrazole-4-carboxylic acid] | > 1000%
14 | O=C(O)c1cnn(-c2nc(-c3ccc(Cl)s3)cs2)c1C(F)(F)F [Ref. Ex. 3, 1-[4-(5-chlorothiophen-2-yl)-1,3-thiazol-2-yl]-5-(trifluoromethyl)-1H-pyrazole-4-carboxylic acid] | > 1000%
15 | O=C(O)c1cnn(-c2nc(-c3ccc(Cl)c(Cl)c3)cs2)c1C1CC1 [Ref. Ex. 4, 5-cyclopropyl-1-[4-(3,4-dichlorophenyl)-1,3-thiazol-2-yl]-1H-pyrazole-4-carboxylic acid] | > 1000%
16 | Cc1c(C(=O)O)cnn1-c1nc(-c2ccc(Cl)c(Cl)c2)cs1 [Ref. Ex. 5, 1-[4-(3,4-dichlorophenyl)-1,3-thiazol-2-yl]-5-methyl-1H-pyrazole-4-carboxylic acid] | > 1000%
17 | O=C(O)c1cnn(-c2nc(-c3cccc(OC(F)(F)F)c3)cs2)c1C(F)(F)F [Ref. Ex. 10, 1-{4-[3-(trifluoromethoxy)phenyl]-1,3-thiazol-2-yl}-5-(trifluoromethyl)-1H-pyrazole-4-carboxylic acid] | > 1000%
18 | O=C(O)c1cnn(-c2nc(-c3ccc(Cl)c(Cl)c3)cs2)c1 [Ref. Ex. 17, 1-[4-(3,4-dichlorophenyl)-1,3-thiazol-2-yl]-1H-pyrazole-4-carboxylic acid] | > 1000%
19 | FC(F)(F)c1c(-c2nn[nH]n2)cnn1-c1nc(-c2ccc(Cl)c(Cl)c2)cs1 [Ref. Ex. 18, 5-{1-[4-(3,4-dichlorophenyl)-1,3-thiazol-2-yl]-5-(trifluoromethyl)-1H-pyrazol-4-yl}-2H-tetrazole] | > 1000%
20 | CS(=O)(=O)NC(=O)c1cnn(-c2nc(-c3ccc(Cl)c(Cl)c3)cs2)c1C(F)(F)F [Ref. Ex. 19, 1-[4-(3,4-dichlorophenyl)-1,3-thiazol-2-yl]-N-(methylsulfonyl)-5-(trifluoromethyl)-1H-pyrazole-4-carboxamide] | > 1000%
21 | O=C(Nc1cccc(Cl)c1)c1csc(-n2ncc(C(=O)O)c2C(F)(F)F)n1 [Ref. Ex. 20, 1-{4-[(3-chlorophenyl)carbamoyl]-1,3-thiazol-2-yl}-5-(trifluoromethyl)-1H-pyrazole-4-carboxylic acid] | > 1000%
22 | O=C(O)c1cnn(-c2nc(COc3ccc(Cl)c(Cl)c3)cs2)c1C(F)(F)F [Ref. Ex. 22, 1-[4-[(3,4-dichlorophenoxy)methyl]-1,3-thiazol-2-yl]-5-(trifluoromethyl)-1H-pyrazole-4-carboxylic acid] | 766%
23 | O=C(O)c1cnn(-c2nc(CCc3cccc(C(F)(F)F)c3)cs2)c1C(F)(F)F [Ref. Ex. 24, 5-(trifluoromethyl)-1-(4-{2-[3-(trifluoromethyl)phenyl]ethyl}-1,3-thiazol-2-yl)-1H-pyrazole-4-carboxylic acid] | > 1000%

The molecules below were run on male SHR (assay: Measurement of hypotensive action in vivo in SHR). Conditions: single oral administration, 10 mg/kg, 5 hr after administration.
Parameters: species or system rat
Protocol: Animal used was male SHR (32- to 40-week-old, SHR/Izm, Japan SLC, Inc.). Two days before drug administration, a cannula (SP10+SP45, Natsume Seisakusho Co., Ltd.) filled with heparin physiological saline (200 U/mL, Ajinomoto Pharma Co., Ltd.) was inserted from the femoral artery under anesthesia with pentobarbital Na (50 mg/kg, i.p., Kyoritsu Seiyaku Corporation) and dwelled. The other end of the cannula was subcutaneously passed and exposed on the back of the neck where it was fixed. After a recovery period, the artery dwelling cannula was connected to a pressure transducer (DTX Plus DT-XXAD, Japan Becton Dickinson) and output on a pen recorder (linear recorder WR3320-4µL, Graphtec Corporation) via a polygraph (AP-641G, Nihon Kohden Co.), and the blood pressure waveform was recorded. The heart rate was calculated from the blood pressure waveform. After stable blood pressure was obtained, a solvent or a drug was orally administered once, and average blood pressure and average heart rate were measured over time. The blood pressure was measured under fasting, and the rats were reared under free ingestion of feed and water except the blood pressure measurement day. The drug was suspended in 0.5% methylcellulose aqueous solution. The administration dose was 2 mL/kg.

Row | Structure (SMILES) | hypotension after 5 hr from the administration
24 | Cc1sc(-c2cccc(C(F)(F)F)c2F)nc1Cn1cc(C(=O)O)cn1 [Example 80, 1-({2-[2-fluoro-3-(trifluoromethyl)phenyl]-5-methyl-1,3-thiazol-4-yl}methyl)-1H-pyrazole-4-carboxylic acid] | 14.7 mmHg
25 | Cc1sc(-c2cc(Cl)cc(C(F)(F)F)c2)nc1Cn1cc(C(=O)O)cn1 [Example 83, 1-({2-[3-chloro-5-(trifluoromethyl)phenyl]-5-methyl-1,3-thiazol-4-yl}methyl)-1H-pyrazole-4-carboxylic acid] | 14.5 mmHg

Same assay, conditions: single oral administration, 30 mg/kg, 5 hr after administration

Row | Structure (SMILES) | hypotension after 5 hr from the administration
26 | O=C(O)c1cnn(Cc2nc(-c3cccc(C(F)(F)F)c3)cs2)c1 [Example 1, 1-({4-[3-(trifluoromethyl)phenyl]-1,3-thiazol-2-yl}methyl)-1H-pyrazole-4-carboxylic acid] | 15.5 mmHg
27 | O=C(O)c1cnn(Cc2nc(-c3cccc(C(F)(F)F)c3F)cs2)c1 [Example 52, 1-({4-[2-fluoro-3-(trifluoromethyl)phenyl]-1,3-thiazol-2-yl}methyl)-1H-pyrazole-4-carboxylic acid] | 29.4 mmHg
